# Reference: PMC10216263, “Favorable Preclinical Pharmacological Profile of a Novel Antimalarial Pyrrolizidinylmethyl Derivative of 4-amino-7-chloroquinoline with Potent In Vitro and In Vivo Activities” (Biomolecules, 2023)
# Like-named read-outs stand apart in the source and are kept apart here.
# How the values were obtained:
# [1] = tested on: P. falciparum V1-S (CQ-R); assay: In vitro antimalarial activity, [3H]-hypoxanthine incorporation (LSHTM); type: cell-based; conditions: Plasmodium falciparum; 72 h, [3H]-hypoxanthine incorporation, mean of 3 experiments; read-out: P. falciparum IC50 nM, V1-S (CQ-R)
# [2] = Intrinsic clearance in hepatocytes; type: in vitro ADME
# Description: (§1) An automatic liquid handling system (Multiprobe II EX, Packard) was used for sampling. At 0, 10, 20, 30, 60 and 90 min, […] aliquots of the incubates were taken and added with […] of ice-cold ACN and […] of 1 µM warfarin in ACN (internal standard), and samples centrifuged at 2000 rpm for 20 min. The analysis of supernatant was conducted using LC-MS/MS. MG3 was incubated in the medium under the same conditions to evaluate the chemical stability; 7-ethoxycoumarin (7-ETC) 1 µM and 7-hydroxycoumarin (7-HC) 30 µM were utilized as positive controls for Phase I and Phase II activities. […] Half-life and CLint were determined from the concentration (counts) remaining at the different sampling points using the LC-MS/MS method. The slope was calculated using linear regression analysis of the curve (natural logarithmic area of the compound remaining against the time) and converted into the half-life (t1/2) and CLint expressed as µL/min/million cells and mL/min/kg, respectively.
# dog hepatocytes = assay: Intrinsic clearance in hepatocytes; type: in vitro ADME; conditions: 1 µM
# Description: as §1
# human hepatocytes = assay: Intrinsic clearance in hepatocytes; type: in vitro ADME; conditions: 1 µM
# Description: as §1
# monkey hepatocytes = assay: Intrinsic clearance in hepatocytes; type: in vitro ADME; conditions: 1 µM
# Description: as §1
# mouse hepatocytes = assay: Intrinsic clearance in hepatocytes; type: in vitro ADME; conditions: 1 µM
# Description: as §1
# rat hepatocytes = assay: Intrinsic clearance in hepatocytes; type: in vitro ADME; conditions: 1 µM
# Description: as §1
# [3] = 7-day oral dose range finding (DRF) and systemic exposure in rats; type: in vivo, Sprague Dawley rats
# Description: (§2) Seven days oral DRF in rats and dog, and five days oral DRF in Non-Human Primates (NHP) were performed using Sprague Dawley rats (n = 3/time point) of both sexes, one male and one female dog Beagle (Marshall/Green Hill) and one male and one female monkeys/Cynomolgus (Noveprim Ltd., Mahebourg Mauritius,). MG3 was administered as oral suspension in 0.5% methocel in water (400 cP viscosity) at the following doses: 30, 60 and 120 mg/kg/day for 7 days (rat), 15 and 30 mg/kg/days for 7 days (dog) and 25, 50 and 75 mg/kg/day (NHP). No Observed Effects Levels (NOEL) were determined. Mortality, behavior, and general conditions were observed daily. Body weight was recorded pre-test, and on Days 1, 4 and 7. Food consumption was recorded from Days 1 to 4 and 4 to 7. Hematological and clinical chemistry examinations were performed on Day 8. All animals were sacrificed under anesthesia at the end of the treatment period on Day 8 of study. Post-mortem examinations included necropsy, collection, and histological examination performed of selected organs/tissues.
# Systemic exposure was measured in three additional rats/sex/group at different time-points up to 24 and 48 h after the treatment and on Days 1 and 7, respectively.
# 7-day oral DRF in dog = type: in vivo, Beagle dog; conditions: dogs, 15 and 30 mg/kg/day oral, 7 days
# Description: as §2
# [4] = Oral DRF and systemic exposure in NHP; type: in vivo, Cynomolgus monkeys; conditions: for AUC(0-t) / Cmax / Tmax: po, 50 mg/kg/day; for half-life: plasma, Day 5, 50 mg/kg/day oral, read-out: t1/2, z (converted)
# Description: as §2
# P. falciparum K1 (CQ-R) = assay: In vitro combination study (isobologram, ∑FIC); type: cell-based
# CYP1A2 = CYP1A2 (Homo sapiens, UniProt P05177); assay: in vitro
# CYP1A2, sequence (P05177 whole entry): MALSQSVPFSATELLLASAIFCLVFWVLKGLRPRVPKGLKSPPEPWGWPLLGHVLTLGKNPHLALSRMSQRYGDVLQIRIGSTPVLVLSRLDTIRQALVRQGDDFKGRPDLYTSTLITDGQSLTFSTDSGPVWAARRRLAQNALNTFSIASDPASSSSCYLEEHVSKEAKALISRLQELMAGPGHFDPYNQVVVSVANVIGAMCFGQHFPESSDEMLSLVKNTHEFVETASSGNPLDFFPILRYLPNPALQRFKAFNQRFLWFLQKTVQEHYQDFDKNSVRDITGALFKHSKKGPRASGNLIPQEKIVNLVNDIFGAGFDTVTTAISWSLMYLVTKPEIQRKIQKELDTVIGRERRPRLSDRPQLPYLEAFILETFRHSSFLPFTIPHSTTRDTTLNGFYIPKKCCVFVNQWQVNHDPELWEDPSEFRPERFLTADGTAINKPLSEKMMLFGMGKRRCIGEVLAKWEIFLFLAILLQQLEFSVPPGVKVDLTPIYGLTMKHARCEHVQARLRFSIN
# [5] = male, Sprague Dawley, rat, in vivo, po, 30 mg/kg/day
# [6] = both sexes, cynomolgus monkey, in vivo
# [7] = female, cynomolgus monkey, in vivo
# [8] = male, cynomolgus monkey, in vivo
smiles,measurement,setting,value
"Clc1ccc2c(NCC34CCCN3CCC4)ccnc2c1 [MG3, 7-Chloro-N-((hexahydro-1H-pyrrolizin-7a-yl)methyl)quinolin-4-amine]",IC50,[1],25.7 nM
same,CLint scaled at 1 µM,[2]; dog hepatocytes,111 mL/min/kg
same,CLint scaled at 1 µM,[2]; human hepatocytes,4.9 mL/min/kg
same,CLint scaled at 1 µM,[2]; monkey hepatocytes,44 mL/min/kg
same,CLint scaled at 1 µM,[2]; mouse hepatocytes,196 mL/min/kg
same,CLint scaled at 1 µM,[2]; rat hepatocytes,51 mL/min/kg
same,Half/life,dog hepatocytes,48 min
same,Half/life,human hepatocytes,340 min
same,Half/life,monkey hepatocytes,86 min
same,Half/life,mouse hepatocytes,31 min
same,Half/life,rat hepatocytes,65 min
same,mortality,"[3]; 30, 60, and 120 mg/kg/day oral, 7 days",no mortality occurred
same,MTD at 7 days,"[3]; both sexes, Sprague Dawley, rat, in vivo, oral, 7 days, rats, read-out: maximum tolerated dose (MTD)",120 mg/kg/day
same,AUC(0-t),"[3]; female, Sprague Dawley, rat, in vivo, po, 30 mg/kg/day, AUC0–24",2560 ± 650 ng·h/mL
same,AUC(0-t),"[3]; female, Sprague Dawley, rat, in vivo, po, 30 mg/kg/day, AUC0–48",3800 ± 1000 ng·h/mL
same,Cmax,"[3]; female, Sprague Dawley, rat, in vivo, po, 30 mg/kg/day",149 ± 34 ng/mL
same,AUC(0-t),"[3]; female, Sprague Dawley, rat, in vivo, po, 60 mg/kg/day, AUC0–24",8630 ± 870 ng·h/mL
same,AUC(0-t),"[3]; female, Sprague Dawley, rat, in vivo, po, 60 mg/kg/day, AUC0–48",15000 ± 900 ng·h/mL
same,Cmax,"[3]; female, Sprague Dawley, rat, in vivo, po, 60 mg/kg/day",646 ± 201 ng/mL
same,AUC(0-t),"[3]; female, Sprague Dawley, rat, in vivo, po, 120 mg/kg/day, AUC0–24",19400 ± 7500 ng·h/mL
same,AUC(0-t),"[3]; female, Sprague Dawley, rat, in vivo, po, 120 mg/kg/day, AUC0–48",29800 ± 9600 ng·h/mL
same,Cmax,"[3]; female, Sprague Dawley, rat, in vivo, po, 120 mg/kg/day",1570 ± 270 ng/mL
same,AUC(0-t),"[3]; female, Sprague-Dawley, rat, in vivo, po, 30 mg/kg/day, AUC0–24",2530 ± 500 ng·h/mL
same,AUC(0-t),"[3]; female, Sprague-Dawley, rat, in vivo, po, 60 mg/kg/day, AUC0–24",4740 ± 770 ng·h/mL
same,Cmax,"[3]; female, Sprague-Dawley, rat, in vivo, po, 60 mg/kg/day",259 ± 46 ng/mL
same,AUC(0-t),"[3]; female, Sprague-Dawley, rat, in vivo, po, 120 mg/kg/day, AUC0–24",5210 ± 1600 ng·h/mL
same,Cmax,"[3]; female, Sprague-Dawley, rat, in vivo, po, 120 mg/kg/day",411 ± 288 ng/mL
same,AUC0–24,[3]; [5],1.88 ± 0.19 µg·h/mL
same,AUC(0-t),"[3]; male, Sprague Dawley, rat, in vivo, po, 30 mg/kg/day, AUC0–24",1880 ± 380 ng·h/mL
same,AUC(0-t),"[3]; male, Sprague Dawley, rat, in vivo, po, 30 mg/kg/day, AUC0–48",2460 ± 550 ng·h/mL
same,Cmax,[3]; [5],140 ± 30 ng/mL
same,AUC(0-t),"[3]; male, Sprague Dawley, rat, in vivo, po, 60 mg/kg/day, AUC0–24",5090 ± 450 ng·h/mL
same,AUC(0-t),"[3]; male, Sprague Dawley, rat, in vivo, po, 60 mg/kg/day, AUC0–48",7330 ± 310 ng·h/mL
same,Cmax,"[3]; male, Sprague Dawley, rat, in vivo, po, 60 mg/kg/day",321 ± 50 ng/mL
same,AUC(0-t),"[3]; male, Sprague Dawley, rat, in vivo, po, 120 mg/kg/day, AUC0–24",17400 ± 3200 ng·h/mL
same,AUC(0-t),"[3]; male, Sprague Dawley, rat, in vivo, po, 120 mg/kg/day, AUC0–48",27500 ± 3900 ng·h/mL
same,Cmax,"[3]; male, Sprague Dawley, rat, in vivo, po, 120 mg/kg/day",1090 ± 260 ng/mL
same,AUC(0-t),"[3]; male, Sprague-Dawley, rat, in vivo, po, 60 mg/kg/day, AUC0–24",3530 ± 180 ng·h/mL
same,Cmax,"[3]; male, Sprague-Dawley, rat, in vivo, po, 60 mg/kg/day",220 ± 10 ng/mL
same,AUC(0-t),"[3]; male, Sprague-Dawley, rat, in vivo, po, 120 mg/kg/day, AUC0–24",3840 ± 700 ng·h/mL
same,Cmax,"[3]; male, Sprague-Dawley, rat, in vivo, po, 120 mg/kg/day",209 ± 49 ng/mL
same,food consumption,"[3]; rat, in vivo",Minimal to moderate decrease in food consumption
same,clinical chemistry on Day 8,"[3]; rat, in vivo, 120 mg/kg/day",slight to moderate increase in ALT and AST
same,systemic exposure in females higher than in males,"[3]; rat, in vivo, po",about two-fold
same,mortality and liver toxicity,"[3]; up to 60 mg/kg, 7-day oral toxicity study",no mortality and no clinical evidence of liver toxicity
same,toxicity finding,7-day oral DRF in dog,associated with mortality one week after last treatment due to acute renal failure
same,tolerability,"[4]; NHP, 50 mg/kg/day for five consecutive days",tolerated with limited clinical signs
same,toxicity finding,"[4]; NHP, 75 mg/kg/day oral (Phase I, incremental doses)",associated with mortality and severe CNS-related clinical signs
same,AUC(0-t),[4]; [6],896 ± 132 ng·h/mL
same,Cmax,[4]; [6],70.1 ± 3.68 ng/mL
same,Tmax,[4]; [6],1.25 ± 1.06 h
same,MTD at 5 days,"[4]; both sexes, cynomolgus monkey, in vivo, NHP, 5-day oral, read-out: maximum tolerated dose (MTD)",50 mg/kg/day
same,half-life,"[4]; both sexes, cynomolgus monkey, Mean ± SD of male and female NHP",894 ± 618 min
same,half-life,"[4]; cynomolgus monkey, Female NHP",1330 min
same,half-life,"[4]; cynomolgus monkey, Male NHP",460 min
same,AUC(0-t),[4]; [7],989 ng·h/mL
same,Cmax,[4]; [7],72.7 ng/mL
same,Tmax,[4]; [7],0.5 h
same,AUC(0-t),[4]; [8],802 ng·h/mL
same,Cmax,[4]; [8],67.5 ng/mL
same,Tmax,[4]; [8],2 h
same,Mean ∑FIC50 (95% CI),"P. falciparum K1 (CQ-R); in combination with ASN, K1, IC50 level",1.25 (0.94 – 1.56)
same,Mean ∑FIC50 (95% CI),"P. falciparum K1 (CQ-R); in combination with DHA, K1, IC50 level",1.25 (1.21 – 1.29)
same,Mean ∑FIC50 (95% CI),"P. falciparum K1 (CQ-R); in combination with RKA-182, K1, IC50 level",1.24 (0.85 – 1.63)
same,interaction (isobologram),"P. falciparum K1 (CQ-R); in combination with azitromycin, K1 (CQ-R)",additive
same,inhibition at 3 µM,CYP1A2,12.1 ± 1.2%
